Read-outs that look alike come from different tables or passages of the source.
Experiments:
[1] = tested on: Rhipicephalus sanguineus (Brown Dog Tick); experiment: whole plant or invertebrate; details: for mortality at 200 ppm: Rhipicephalus sanguineus, read-out: Contact SP Rhicicep PCT Mortality (%); for Contact SP Rhicicep PCT Mortality (%): 200 ppm
From the text: A solution of the test compound was used to coat the inner wall of glass vials and to treat two filter papers. Once dried, one filter paper was placed in the cap of the vial and the other in the bottom of the vial. Each treated vial was infested with 10 adult Rhipicephalus sanguineus (Brown Dog Tick). […]

[2] = tested on: Haematobia irritans; experiment: whole plant or invertebrate; details: 5 μg/cm^2; for mortality at 5 µg/cm2: Haematobia irritans, read-out: Contact SP Horn Fly PCT Mortality (%)
Procedure: A solution of the test compound was used to treat a filter paper contained within a Petri dish and the filter paper was allowed to evaporate to dryness. A small piece of absorbent cotton moistened with 10% sucrose and ten adult flies (Haematobia irritans or Stomoxys calcitrans) were added to each dish. Dishes were capped and held at room temperature. Assessments were performed at 4 and 24 hours after infestation in comparison with untreated controls.

Structure (SMILES): O=C(NCC1CCOCC1)c1ccc(COCc2ccccc2C(F)(F)F)cn1 [Compound 266]
- mortality at 200 ppm ([1]; timepoint 4 hrs): 70%
- mortality at 200 ppm ([1]; timepoint 24 hrs): 90%

Structure (SMILES): COCCCNC(=O)c1ccc(COc2cccc(-c3cccc(F)c3)c2)cn1 [Compound 166]
- Contact SP Rhicicep PCT Mortality (%) ([1]; timepoint 4 hrs): 40%
- Contact SP Rhicicep PCT Mortality (%) ([1]; timepoint 24 hrs): 80%

Structure (SMILES): COCCCNC(=O)c1ccc(COc2ccc(OC(F)(F)F)cc2)cn1 [Compound 18]
- Contact SP Horn Fly PCT Mortality (%) ([2]; timepoint 4 hrs): 0%
- Contact SP Horn Fly PCT Mortality (%) ([2]; timepoint 24 hrs): 40%

Structure (SMILES): O=C(NCC1CCOCC1)c1ccc(COCc2ccc(Cl)cc2)cn1 [Compound 259]
- mortality at 200 ppm ([1]; timepoint 4 hrs): 80%
- mortality at 200 ppm ([1]; timepoint 24 hrs): 90%

Structure (SMILES): CCOc1cccc(OCc2ccc(C(=O)NCC(C)C)nc2)c1 [Compound 199]
- Contact SP Rhicicep PCT Mortality (%) ([1]; timepoint 4 hrs): 100%
- Contact SP Rhicicep PCT Mortality (%) ([1]; timepoint 24 hrs): 100%

Structure (SMILES): C=C(C)CNC(=O)c1ccc(COc2cccc(OC)c2)cn1 [Compound 150]
- Contact SP Rhicicep PCT Mortality (%) ([1]; timepoint 4 hrs): 70%
- Contact SP Rhicicep PCT Mortality (%) ([1]; timepoint 24 hrs): 70%

Structure (SMILES): CSCCNC(=O)c1ccc(COc2cccc(-c3cccc(F)c3)c2)cn1 [Compound 174]
- Contact SP Rhicicep PCT Mortality (%) ([1]; timepoint 4 hrs): 90%
- Contact SP Rhicicep PCT Mortality (%) ([1]; timepoint 24 hrs): 100%

Structure (SMILES): CCC(C)CNC(=O)c1ccc(COc2cccc(-c3cccc(F)c3)c2)cn1 (stereo not shown) [Compound 181]
- Contact SP Rhicicep PCT Mortality (%) ([1]; timepoint 4 hrs): 70%
- Contact SP Rhicicep PCT Mortality (%) ([1]; timepoint 24 hrs): 90%

Structure (SMILES): O=C(NCC1CCOCC1)c1ccc(CCOc2cccc(C(F)(F)F)c2)cn1 [Compound 220]
- mortality at 200 ppm ([1]; timepoint 4 hrs): 100%
- mortality at 200 ppm ([1]; timepoint 24 hrs): 100%

Structure (SMILES): CC(C)CNC(=O)c1ccc(CCOc2cc(F)cc(C(F)(F)F)c2)cn1 [Compound 278]
- Contact SP Rhicicep PCT Mortality (%) ([1]; timepoint 4 hrs): 70%
- Contact SP Rhicicep PCT Mortality (%) ([1]; timepoint 24 hrs): 100%

Structure (SMILES): O=C(NCC1CC1)c1ccc(COc2ccc(C(F)(F)F)cc2)cn1 [Compound 95]
- Contact SP Horn Fly PCT Mortality (%) ([2]; timepoint 4 hrs): 50%
- Contact SP Horn Fly PCT Mortality (%) ([2]; timepoint 24 hrs): 70%

Structure (SMILES): COC(CNC(=O)c1ccc(COc2cccc(-c3cccc(F)c3)c2)cn1)OC [Compound 167]
- Contact SP Rhicicep PCT Mortality (%) ([1]; timepoint 4 hrs): 100%
- Contact SP Rhicicep PCT Mortality (%) ([1]; timepoint 24 hrs): 100%

Structure (SMILES): C=C(C)CNC(=O)c1ccc(COc2cccc(OC(F)(F)F)c2)cn1 [Compound 53]
- Contact SP Horn Fly PCT Mortality (%) ([2]; timepoint 4 hrs): 20%
- Contact SP Horn Fly PCT Mortality (%) ([2]; timepoint 24 hrs): 20%

Structure (SMILES): CCNC(=O)c1ccc(COc2ccc(OC(F)(F)F)cc2)cn1 [Compound 23]
- Contact SP Rhicicep PCT Mortality (%) ([1]; timepoint 4 hrs): 80%
- Contact SP Rhicicep PCT Mortality (%) ([1]; timepoint 24 hrs): 90%

Structure (SMILES): CC(C)(C)CNC(=O)c1ccc(COCc2ccc(Cl)cc2)cn1 [Compound 216]
- Contact SP Rhicicep PCT Mortality (%) ([1]; timepoint 4 hrs): 0%
- Contact SP Rhicicep PCT Mortality (%) ([1]; timepoint 24 hrs): 60%

Structure (SMILES): CC(C)CNC(=O)c1ccc(COCc2ccc(OC(F)(F)F)cc2)cn1 [Compound 133]
- mortality at 5 µg/cm2 ([2]; timepoint 4 hrs): 80%
- mortality at 5 µg/cm2 ([2]; timepoint 24 hrs): 80%

Structure (SMILES): CC(C)CNC(=O)c1ccc(COCc2ccc(C(F)(F)F)c(Cl)c2)cn1 [Compound 284]
- Contact SP Rhicicep PCT Mortality (%) ([1]; timepoint 4 hrs): 90%
- Contact SP Rhicicep PCT Mortality (%) ([1]; timepoint 24 hrs): 100%

Structure (SMILES): CCC(C)NC(=O)c1ccc(CCOc2cccc(OC(F)(F)F)c2)cn1 (stereo not shown) [Compound 241]
- mortality at 200 ppm ([1]; timepoint 4 hrs): 50%
- mortality at 200 ppm ([1]; timepoint 24 hrs): 90%

Structure (SMILES): CCC(C)CNC(=O)c1ccc(CCOc2cccc(C(F)(F)F)c2)cn1 (stereo not shown) [Compound 221]
- mortality at 200 ppm ([1]; timepoint 4 hrs): 90%
- mortality at 200 ppm ([1]; timepoint 24 hrs): 100%

Structure (SMILES): C=C(C)CNC(=O)c1ccc(COc2ccc(OC(F)(F)F)cc2)cn1 [Compound 38]
- Contact SP Horn Fly PCT Mortality (%) ([2]; timepoint 4 hrs): 50%
- Contact SP Horn Fly PCT Mortality (%) ([2]; timepoint 24 hrs): 80%

Structure (SMILES): CC(C)CNC(=O)c1ccc(COc2cc(F)cc(Br)c2)cn1 [Compound 125]
- mortality at 5 µg/cm2 ([2]; timepoint 4 hrs): 100%
- mortality at 5 µg/cm2 ([2]; timepoint 24 hrs): 100%

Structure (SMILES): CC(C)CNC(=O)c1ccc(CCOc2cc(Cl)cc(Cl)c2)cn1 [Compound 225]
- mortality at 200 ppm ([1]; timepoint 4 hrs): 90%
- mortality at 200 ppm ([1]; timepoint 24 hrs): 100%

Structure (SMILES): CC(C)CNC(=O)c1ccc(COCc2ccc(Cl)c(OC(F)(F)F)c2)cn1 [Compound 227]
- Contact SP Rhicicep PCT Mortality (%) ([1]; timepoint 4 hrs): 100%
- Contact SP Rhicicep PCT Mortality (%) ([1]; timepoint 24 hrs): 100%
